Measurements from article PMC11842024, “Reversible male contraception by targeted inhibition of serine/threonine kinase 33” (Science (New York, N.Y.), 2024).
Like-named read-outs stand apart in the source and are kept apart here.

Columns and labels:
[1] = Pharmacokinetics (PK) of CDD-2807 in mice; assay type: in vivo; conditions: plasma; for AUC(0-inf) / AUC(0-t) / Cmax / Tmax / MRT inf / half-life: male, C57BL/6NJ, mouse; for MRT inf: read-out: MRT0-∞
Description: Pharmacokinetics (PK) of CDD-2807 in mice. The pharmacokinetic studies (72) of CDD-2807 were performed at three doses via intraperitoneal (i.p.) injection and oral (p.o.) administration.
CDD-2807 was dissolved in 10% Captisol containing 5% DMSO to prepare the solutions of 0.5 mg/mL, 2.5 mg/mL and 5.0 mg/mL. Twelve male mice (strain: C57BL/6NJ, 8−12 weeks) were divided equally and randomly into 4 groups (n = 3 for each dose). One group of mice were administered 5 mg/kg CDD-2807 (i.p., 10 µL/g of 0.5 mg/mL solution), the second group 25 mg/kg CDD-2807 (i.p., 10 µL/g of 2.5 mg/mL solution), the third group 5 mg/kg CDD-2807 (p.o., 10 µL/g of 0.5 mg/mL solution), and the fourth group 50 mg/kg CDD-2807 (p.o., 10 µL/g of 5.0 mg/mL solution). At 0, 5, 10, 15, 30 min, 1, 2, 4, 6, 8, 24 h post-dose, around 20 µL of blood was collected from the tail vein and anti-coagulated by heparin. The blood samples were centrifuged at 2000 g for 3 min at 4°C, and the plasma samples were transferred to tubes and stored at −80°C before analysis. All the samples were analyzed by the Thermo TSQ Quantis MS coupled with a Thermo Vanquish UHPLC (San Jose, CA). CDD-2807 was separated on a Luna C18 column (1 mm × 50 mm, 1.6 µm, Phenomenex, Torrance, CA), and eluted by a water-acetonitrile mobile phase system (both containing 0.1% formic acid, v/v) at the flow rate of 0.15 mL/min. CDD-2807 was monitored under the SRM mode coupled with a positive ESI source. The SRM ion pairs were 447→321 for CDD-2807. The ion spray voltage was set at 3500 V. High-purity nitrogen was used as the sheath gas (35 arbitrary unit), auxiliary gas (7 arbitrary unit), and high-purity argon was used as the collision gas. The temperatures of the ion transfer tube and the vaporizer were set at 300°C and 275°C, respectively. The concentration of CDD-2807 in plasma was quantified using individual calibration curves. The calibration curve was regressed with a weight of 1/x2 with high linearity (r2 >0.99). PK parameters, including half-time (t1/2), area under the plasma concentration– time curve from zero to infinity (AUC0–∞), clearance normalized by the bioavailability (CL/F), volume of distribution normalized by the bioavailability (Vd/F), and the mean residence time (MRT), were calculated by WinNonlin software (Certara, Princeton, NJ) by noncompartmental analysis. The plasma concentration–time curves were plotted in GraphPad Prism 9 (San Diego, […]

male mice = experiment: Testis size of treated mice; assay type: in vivo
CLK1 = CLK1 (Homo sapiens, UniProt P49759); experiment: Z'-LYTE activity assay (ThermoFisher SelectScreen); assay type: biochemical; parameters: purchased SelectScreen Services (ThermoFisher); conditions: [ATP] = Kmapp
CLK1, sequence (P49759 whole entry): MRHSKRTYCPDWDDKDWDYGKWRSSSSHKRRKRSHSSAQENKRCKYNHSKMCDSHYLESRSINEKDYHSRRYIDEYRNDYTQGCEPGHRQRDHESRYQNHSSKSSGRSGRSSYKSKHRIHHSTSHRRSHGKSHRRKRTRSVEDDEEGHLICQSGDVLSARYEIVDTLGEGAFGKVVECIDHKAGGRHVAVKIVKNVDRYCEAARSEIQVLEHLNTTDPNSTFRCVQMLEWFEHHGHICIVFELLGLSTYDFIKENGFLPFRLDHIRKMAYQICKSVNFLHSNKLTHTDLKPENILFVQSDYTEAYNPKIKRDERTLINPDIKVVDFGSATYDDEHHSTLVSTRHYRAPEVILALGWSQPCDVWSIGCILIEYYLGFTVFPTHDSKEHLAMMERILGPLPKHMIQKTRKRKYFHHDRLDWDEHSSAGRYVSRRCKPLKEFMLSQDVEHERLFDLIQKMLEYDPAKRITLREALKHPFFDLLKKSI
Excerpt: (§1) In vitro biochemical assays. Several small molecule assays were outsourced to SelectScreen Services (ThermoFisher) for STK33 and for off-target kinases (data sets are available on demand).
(§2) These assays are LanthaScreen (binding assay) and Z’-LYTE (activity assay). Dose-responses were done with at least 5 different concentrations in duplicates, and parameters were optimized by calculations described below and provided with standard errors. […]
(§3) Calculation of Ki values for kinase inhibitors from Z’-LYTE inhibition data. The Morrison equation with [ATP] = Kmapp for competitive inhibition (GraphPad Prism 7, San Diego, CA) was used to get Ki values. Since Kd and Ki values are defined the same way, in other words, Kd = [E] [I] / [EI] = Ki, Kd and Ki values can be compared. […]

CLK2 = CLK2 (Homo sapiens, UniProt P49760); experiment: Z'-LYTE activity assay (ThermoFisher SelectScreen); assay type: biochemical; parameters: purchased SelectScreen Services (ThermoFisher); conditions: [ATP] = Kmapp
CLK2, sequence (P49760 whole entry): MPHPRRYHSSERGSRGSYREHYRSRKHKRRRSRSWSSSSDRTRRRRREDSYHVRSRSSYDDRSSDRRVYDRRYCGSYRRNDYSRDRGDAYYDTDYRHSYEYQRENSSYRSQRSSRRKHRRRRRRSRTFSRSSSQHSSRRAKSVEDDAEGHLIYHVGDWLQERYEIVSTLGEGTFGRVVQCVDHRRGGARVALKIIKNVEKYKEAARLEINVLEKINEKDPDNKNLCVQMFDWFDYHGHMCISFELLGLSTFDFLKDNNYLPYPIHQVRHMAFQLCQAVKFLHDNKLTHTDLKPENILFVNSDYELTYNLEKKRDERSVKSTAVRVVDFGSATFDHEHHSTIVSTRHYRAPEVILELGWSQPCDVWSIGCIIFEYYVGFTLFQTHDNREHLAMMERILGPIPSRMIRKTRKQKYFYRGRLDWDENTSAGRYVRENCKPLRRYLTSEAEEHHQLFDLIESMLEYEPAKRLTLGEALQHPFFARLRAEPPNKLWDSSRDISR
Excerpt: as §1, §2, §3

RET = RET (Homo sapiens, UniProt P07949); experiment: Z'-LYTE activity assay (ThermoFisher SelectScreen); assay type: biochemical; parameters: purchased SelectScreen Services (ThermoFisher); conditions: [ATP] = Kmapp
RET, sequence (P07949 29-1114): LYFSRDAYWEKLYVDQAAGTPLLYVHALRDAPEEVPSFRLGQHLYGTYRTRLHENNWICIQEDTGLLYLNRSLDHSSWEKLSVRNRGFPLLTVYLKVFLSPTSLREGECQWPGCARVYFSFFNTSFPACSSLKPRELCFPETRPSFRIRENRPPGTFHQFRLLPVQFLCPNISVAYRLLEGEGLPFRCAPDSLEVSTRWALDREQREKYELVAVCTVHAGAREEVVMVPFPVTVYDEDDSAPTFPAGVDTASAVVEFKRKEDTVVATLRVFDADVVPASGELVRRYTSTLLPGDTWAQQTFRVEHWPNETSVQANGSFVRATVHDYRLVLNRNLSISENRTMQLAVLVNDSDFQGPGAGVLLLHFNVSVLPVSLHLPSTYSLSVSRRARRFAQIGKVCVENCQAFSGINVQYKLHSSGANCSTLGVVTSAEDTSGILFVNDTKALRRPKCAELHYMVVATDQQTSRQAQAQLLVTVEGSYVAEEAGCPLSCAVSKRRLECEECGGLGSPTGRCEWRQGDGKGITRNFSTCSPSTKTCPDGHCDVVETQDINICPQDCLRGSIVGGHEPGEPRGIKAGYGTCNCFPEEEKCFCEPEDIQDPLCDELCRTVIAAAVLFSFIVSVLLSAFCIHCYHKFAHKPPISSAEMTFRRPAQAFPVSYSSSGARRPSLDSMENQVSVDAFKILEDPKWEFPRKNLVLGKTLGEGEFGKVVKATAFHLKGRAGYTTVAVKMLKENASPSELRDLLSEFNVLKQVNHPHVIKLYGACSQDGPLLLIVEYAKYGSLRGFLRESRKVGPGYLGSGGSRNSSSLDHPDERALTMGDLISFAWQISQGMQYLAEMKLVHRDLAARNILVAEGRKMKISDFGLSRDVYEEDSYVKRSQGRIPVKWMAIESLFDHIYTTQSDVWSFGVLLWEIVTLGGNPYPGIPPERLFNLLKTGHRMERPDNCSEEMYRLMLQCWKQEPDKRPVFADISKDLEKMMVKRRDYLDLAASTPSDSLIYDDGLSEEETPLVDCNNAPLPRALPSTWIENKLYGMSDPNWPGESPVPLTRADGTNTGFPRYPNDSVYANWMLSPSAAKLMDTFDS
Excerpt: as §1, §2, §3

[2] = po, p.o. administration 5 mg/kg
[3] = po, p.o. administration 50 mg/kg

For O=C(c1ccc2[nH]nc(C#Cc3ccccc3-c3ccccc3)c2c1)N1CC2(CCCNC2)C1 [CDD-2807], which AUC(0-inf) ([1]; ip, i.p. injection 5 mg/kg) is on record?
The AUC(0-inf) was 11.2 ± 1.11 µM·h.

What about the AUC(0-t) ([1]; ip, i.p. injection 5 mg/kg) of the same molecule?
The AUC(0-t) was 9.46 ± 1.47 µM·h.

And the Cmax ([1]; ip, i.p. injection 5 mg/kg)?
Its Cmax is 2950 ± 640 nM.

What about the Tmax ([1]; ip, i.p. injection 5 mg/kg) of the same molecule?
Its Tmax is 0.33 ± 0.14 h.

What about the MRT inf ([1]; ip, i.p. injection 5 mg/kg) of the same molecule?
Its MRT inf is 11.1 ± 4.43 h.

What about the half-life ([1]; ip, i.p. injection 5 mg/kg, read-out: t1/2 (converted)) of the same molecule?
Its half-life is 11.9 ± 4.38 h.

And the AUC(0-inf) ([1]; ip, i.p. injection 25 mg/kg)?
The AUC(0-inf) was 67.7 ± 12.4 µM·h.

And the AUC(0-t) ([1]; ip, i.p. injection 25 mg/kg)?
Its AUC(0-t) is 55.5 ± 5.42 µM·h.

What about the Cmax ([1]; ip, i.p. injection 25 mg/kg) of the same molecule?
The Cmax was 11900 ± 400 nM.

And the Tmax ([1]; ip, i.p. injection 25 mg/kg)?
The Tmax was 0.33 ± 0.14 h.

What about the MRT inf ([1]; ip, i.p. injection 25 mg/kg) of the same molecule?
The MRT inf was 12.2 ± 3.8 h.

And the half-life ([1]; ip, i.p. injection 25 mg/kg, read-out: t1/2 (converted))?
The half-life was 11.3 ± 3.41 h.

And the half-life ([1]; ip, delivered intraperitoneally, read-out: plasma t1/2)?
The half-life was > 11 h.

And the AUC(0-inf) [1, 2]?
The AUC(0-inf) was 1.85 ± 0.66 µM·h.

And the AUC(0-t) [1, 2]?
The AUC(0-t) was 0.71 ± 0.07 µM·h.

And the Cmax [1, 2]?
The Cmax was 60 ± 20 nM.

And the Tmax [1, 2]?
The Tmax was 1.03 ± 0.96 h.

And the MRT inf [1, 2]?
The MRT inf was 51.2 ± 28.9 h.

What about the half-life ([1]; po, p.o. administration 5 mg/kg, read-out: t1/2 (converted)) of the same molecule?
The half-life was 36.1 ± 19.9 h.

And the AUC(0-inf) [1, 3]?
Its AUC(0-inf) is 2.47 ± 0.34 µM·h.

What about the AUC(0-t) [1, 3] of the same molecule?
The AUC(0-t) was 1.88 ± 0.36 µM·h.

What about the Cmax [1, 3] of the same molecule?
Its Cmax is 180 ± 90 nM.

And the Tmax [1, 3]?
Its Tmax is 2.67 ± 1.15 h.

What about the MRT inf [1, 3] of the same molecule?
Its MRT inf is 16.5 ± 2.8 h.

What about the half-life ([1]; po, p.o. administration 50 mg/kg, read-out: t1/2 (converted)) of the same molecule?
Its half-life is 12.6 ± 1.5 h.

And the CL/F ([1]; p.o. administration 5 mg/kg)?
The CL/F was 2.91 ± 0.87 mg/h/µM/kg.

And the Vd/F ([1]; p.o. administration 5 mg/kg)?
The Vd/F was 134.88 ± 26.14 mg/µM/kg.

What about the CL/F ([1]; p.o. administration 50 mg/kg) of the same molecule?
Its CL/F is 20.52 ± 3.02 mg/h/µM/kg.

And the Vd/F ([1]; p.o. administration 50 mg/kg)?
The Vd/F was 376.76 ± 89.83 mg/µM/kg.

What about the testis size (male mice; 50 mg/kg/day for 7 days (Protocol 3)) of the same molecule?
Its testis size is “did not alter”.

What about the testis size (male mice; protocol 1 at day 45) of the same molecule?
The testis size was “normal”.

What about the testis size (male mice; protocol 2 at 63 days) of the same molecule?
Its testis size is 87.13 ± 5.87 mg.

What about the Ki (CLK1) of the same molecule?
Its Ki is 3.1 nM.

What about the Ki (CLK2) of the same molecule?
Its Ki is 1.3 nM.

What about the Ki (RET) of the same molecule?
The Ki was 0.3 nM.
